Laboratory results taken from article PMC7311426, “An amphipathic peptide with antibiotic activity against multidrug-resistant Gram-negative bacteria” (Nature Communications, 2020).
Converted amounts (≈) assume the structure as drawn. Read-outs that look alike come from different tables or passages of the source. Marks after values point to notes of the source that are not given here.

Legend:
Experiment in all cases: microbe, parasite or virus in culture
S. aureus = system: S. aureus
Procedure, shortened: (§1)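 MICs were scored by eye after 18-20 h static incubation at 37 °C, with bacteria at 5 × 10^5 CFU mL^−1 in MHB. Peptides were serially diluted 2-fold over 12 points, top 128 or 64 μg mL^−1. CAMHB (CLSI) and 1% agarose-MHB variants were also run, at least six replicates.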

E. coli = conditions: for MIC: Escherichia coli
Procedure, shortened: as §1

P. aeruginosa = conditions: mode of 6 replicates; for MIC: Pseudomonas aeruginosa
Procedure, shortened: as §1

A. baumannii = conditions: mode of 6 replicates; for MIC: Acinetobacter baumannii
Procedure, shortened: as §1

S. enterica Typhi = system: S. enterica Typhi
Procedure, shortened: as §1

K. pneumoniae = conditions: mode of 6 replicates; for MIC: Klebsiella pneumoniae
Procedure, shortened: as §1

[1] = system: A. baumannii clinical isolates
Procedure, shortened: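 MIC90 from CLSI broth microdilution (M07-A9) in two clinical-isolate panels. US panel (331 isolates, 2010-2012): AA139 diluted in 0.01% acetic acid/0.1% BSA. Worldwide panel (445 isolates, 2011-2013, four regions): CAMHB, with 0.002% Tween 80 added for AA139 and polymyxin B.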

[2] = A. baumannii, worldwide isolates 2011-2013, n = 108
[3] = Worldwide isolates 2011-2013, A. baumannii n = 108

For “polymyxin B [PolymyxinB, reference compound]”, the “BMD MIC” value (S. aureus; S. aureus ATCC 25923 MSSA, MHB, mode of 6 replicates) was 128 µg/mL, the “MIC against E. coli AID#172 MDR clinical isolate” value (E. coli; BMD) was 0.03 µg/mL and the “BMD MIC” value (E. coli; E. coli ATCC 25922 FDA control strain, CAMHB, mode of 6 replicates) was 0.125 µg/mL. For the same compound, the “BMD MIC” value (E. coli; E. coli ATCC 25922 FDA control strain, MHB, mode of 6 independent biological replicates) was 0.25 µg/mL, the “BMD MIC” value (E. coli; E. coli ATCC 700926 K12 (MG1655), CAMHB, mode of 6 replicates) was 0.015 µg/mL and the “BMD MIC” value (E. coli; E. coli ATCC 700928 CFT073 UPEC, CAMHB, mode of 6 replicates) was ≤0.25 µg/mL. The “BMD MIC” value (E. coli; E. coli CI 12-6-83 Hong Kong, mcr-1 pos, ESBL, CAMHB, mode of 6 replicates) was 2 µg/mL, the “BMD MIC” value (P. aeruginosa; P. aeruginosa ATCC 27853 control strain, CAMHB) was ≤0.25 µg/mL and the “BMD MIC” value (P. aeruginosa; P. aeruginosa ATCC 27853 control strain, MHB) was 0.25 µg/mL. The “BMD MIC” value (P. aeruginosa; P. aeruginosa FADDI-070, MDR, PmxR, MHB/CAMHB) was 32 µg/mL, the “BMD MIC” value (A. baumannii; A. baumannii ATCC 19636 type strain, CAMHB) was 0.06 µg/mL and the “BMD MIC” value (A. baumannii; A. baumannii ATCC 19636 type strain, MHB) was 0.03 µg/mL. The “BMD MIC” value (A. baumannii; A. baumannii Greece CI, XDR, PmxR, MHB) was 8 to 16 µg/mL, the “BMD MIC” value (S. enterica Typhi; S. enterica Typhi ATCC 14028 control strain, CDC 6516-60, CAMHB, mode of 6 replicates) was 0.03 µg/mL and the “BMD MIC” value (K. pneumoniae; K. pneumoniae ATCC 13883 type strain (polymyxin/colistin heteroresistant), MHB) was 0.5-8# μg mL-1. The “BMD MIC” value (K. pneumoniae; K. pneumoniae ATCC 700603 (K6), MDR, OXA-2/SHV-18, CAMHB) was 0.06 µg/mL, the “BMD MIC” value (K. pneumoniae; K. pneumoniae ATCC 700603 (K6), MDR, OXA-2/SHV-18, MHB) was 0.125 µg/mL and the “BMD MIC” value (K. pneumoniae; K. pneumoniae BAA-2146, MDR, ESBL, NDM-1 pos, MHB) was 0.125 µg/mL. For the same compound, the “BMD MIC” value (K. pneumoniae; K. pneumoniae Greece CI 8_GR_13, XDR, KPC-2, PmxR, MHB) was 32 µg/mL, the “Number of isolates with MIC 0.125 (MIC frequency distribution)” value [1] was 4 and the MIC50 [1, 2] was 0.03 µg/mL. The MIC90 [1, 2] was 0.125 µg/mL, the “Number of isolates with MIC 0.03 (MIC frequency distribution)” value ([1]; A. baumannii, worldwide isolates 2011-2013, n = 108, count of isolates at MIC 0.03) was 75 and the “Number of isolates with MIC 0.06 (MIC frequency distribution)” value ([1]; A. baumannii, worldwide isolates 2011-2013, n = 108, count of isolates at MIC 0.06) was 18. For the same compound, the “Number of isolates with MIC 0.25 (MIC frequency distribution)” value ([1]; A. baumannii, worldwide isolates 2011-2013, n = 108, count of isolates at MIC 0.25) was 0, the “Number of isolates with MIC 0.5 (MIC frequency distribution)” value ([1]; A. baumannii, worldwide isolates 2011-2013, n = 108, count of isolates at MIC 0.5) was 2 and the “Number of isolates with MIC 1 (MIC frequency distribution)” value ([1]; A. baumannii, worldwide isolates 2011-2013, n = 108, count of isolates at MIC 1) was 2. The “Number of isolates with MIC 2 (MIC frequency distribution)” value ([1]; A. baumannii, worldwide isolates 2011-2013, n = 108, count of isolates at MIC 2) was 1, the “Number of isolates with MIC 4 (MIC frequency distribution)” value ([1]; A. baumannii, worldwide isolates 2011-2013, n = 108, count of isolates at MIC 4) was 1 and the “Number of isolates with MIC 8 (MIC frequency distribution)” value ([1]; A. baumannii, worldwide isolates 2011-2013, n = 108, count of isolates at MIC 8) was 3. For the same compound, the “Number of isolates with MIC 16 (MIC frequency distribution)” value ([1]; A. baumannii, worldwide isolates 2011-2013, n = 108, count of isolates at MIC 16) was 0, the “Number of isolates with MIC 32 (MIC frequency distribution)” value ([1]; A. baumannii, worldwide isolates 2011-2013, n = 108, count of isolates at MIC 32) was 0 and the “Number of isolates with MIC 64 (MIC frequency distribution)” value ([1]; A. baumannii, worldwide isolates 2011-2013, n = 108, count of isolates at MIC 64) was 0. For the same compound, the “Number of isolates with MIC 128 (MIC frequency distribution)” value ([1]; A. baumannii, worldwide isolates 2011-2013, n = 108, count of isolates at MIC 128) was 0, the “Number of isolates with MIC >16 (MIC frequency distribution)” value ([1]; A. baumannii, worldwide isolates 2011-2013, n = 108, count of isolates at MIC >16) was 0 and the “Number of isolates with MIC >32 (MIC frequency distribution)” value ([1]; A. baumannii, worldwide isolates 2011-2013, n = 108, count of isolates at MIC >32) was 0. For the same compound, the “Number of isolates with MIC >128 (MIC frequency distribution)” value ([1]; A. baumannii, worldwide isolates 2011-2013, n = 108, count of isolates at MIC >128) was 0 and the “Number of isolates with MIC ≤0.015 (MIC frequency distribution)” value ([1]; A. baumannii, worldwide isolates 2011-2013, n = 108, count of isolates at MIC ≤0.015) was 2.
In the case of `CNC(C)C1CCC(N)C(OC2C(N)CC(N)C(OC3OCC(C)(O)C(NC)C3O)C2O)O1` (stereo not drawn) [Gentamicin, gentamicin, reference compound], the MIC (S. aureus; Staphylococcus aureus, ATCC25923 / MSSA, read-out: BMD MIC) is reported as 4 µg/mL (≈ 8.38 µM), the MIC (E. coli; ATCC25922, read-out: BMD MIC, E. coli ATCC 25922 FDA control strain, CAMHB, mode of 6 replicates) is reported as ≤ 0.25 µg/mL and the MIC (E. coli; ATCC25922, read-out: BMD MIC, E. coli ATCC 25922 FDA control strain, MHB, mode of 6 independent biological replicates) is reported as 1 µg/mL (≈ 2.09 µM). For the same compound, the MIC (E. coli; ATCC700926|MG1655, read-out: BMD MIC, E. coli ATCC 700926 K12 (MG1655), CAMHB, mode of 6 replicates) was 0.5 µg/mL (≈ 1.05 µM), the MIC (E. coli; ATCC700928, read-out: BMD MIC, E. coli ATCC 700928 CFT073 UPEC, CAMHB, mode of 6 replicates) was 0.5 µg/mL (≈ 1.05 µM) and the MIC (E. coli; read-out: BMD MIC, E. coli CI 12-6-83 Hong Kong, mcr-1 pos, ESBL, CAMHB, mode of 6 replicates) was 0.5 µg/mL (≈ 1.05 µM). It also gave an MIC (P. aeruginosa; ATCC27853, read-out: BMD MIC, P. aeruginosa ATCC 27853 control strain, CAMHB) of 1 µg/mL (≈ 2.09 µM), an MIC (P. aeruginosa; ATCC27853, read-out: BMD MIC, P. aeruginosa ATCC 27853 control strain, MHB) of 1 µg/mL (≈ 2.09 µM) and an MIC (P. aeruginosa; read-out: BMD MIC, P. aeruginosa FADDI-070, MDR, PmxR, MHB/CAMHB) of 32 µg/mL (≈ 67 µM). For the same compound, the MIC (A. baumannii; ATCC19636, read-out: BMD MIC, A. baumannii ATCC 19636 type strain, CAMHB) was 16 µg/mL (≈ 33.5 µM), the MIC (A. baumannii; ATCC19636, read-out: BMD MIC, A. baumannii ATCC 19636 type strain, MHB) was 32 µg/mL (≈ 67 µM) and the MIC (A. baumannii; read-out: BMD MIC, A. baumannii Greece CI, XDR, PmxR, MHB) was > 32 µg/mL. For the same compound, the MIC (S. enterica Typhi; Salmonella enterica, ATCC14028 / TYPHI, read-out: BMD MIC) was 1 µg/mL (≈ 2.09 µM), the MIC (K. pneumoniae; ATCC13883, read-out: BMD MIC, K. pneumoniae ATCC 13883 type strain (polymyxin/colistin heteroresistant), MHB) was 0.5 µg/mL (≈ 1.05 µM) and the MIC (K. pneumoniae; ATCC700603, read-out: BMD MIC, K. pneumoniae ATCC 700603 (K6), MDR, OXA-2/SHV-18, CAMHB) was 4 µg/mL (≈ 8.38 µM). For the same compound, the MIC (K. pneumoniae; ATCC700603, read-out: BMD MIC, K. pneumoniae ATCC 700603 (K6), MDR, OXA-2/SHV-18, MHB) was 4 µg/mL (≈ 8.38 µM), the MIC (K. pneumoniae; BAA2146, read-out: BMD MIC, K. pneumoniae BAA-2146, MDR, ESBL, NDM-1 pos, MHB) was > 32 µg/mL and the MIC90 ([1]; Acinetobacter baumannii) was > 32 µg/mL. The MIC90 ([1]; US isolates 2010–2012, A. baumannii MDR, n = 19) was >32 µg/mL, the MIC90 ([1]; US isolates 2010–2012, A. baumannii XDR, n = 31) was >32 µg/mL and the MIC50 [1, 3] was > 32 µg/mL. The MIC90 [1, 3] was > 32 µg/mL.
